Several values for one entry are separate records, joined by “and”; a condition that tells them apart may be missing. Equal values may be shown once.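 Compound exposure: 48 hours, 5 concentrations, 96-well plates. GI50 marks 50% less growth. TGI is the concentration that stops growth completely.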
How the values were obtained:
Assay in all cases: NCI-60 cell line screen, 48 h
KM12 colon = test system: KM12 colon
SNB-75 CNS = test system: SNB-75 CNS
MDA-N = test system: MDA-N
SN12C renal = test system: SN12C renal
A498 renal = test system: A498 renal
HCT-15 colon = test system: HCT-15 colon
M14 melanoma = test system: M14 melanoma
SR leukemia = test system: SR leukemia
SK-MEL-5 melanoma = test system: SK-MEL-5 melanoma
MCF7 breast = test system: MCF7 breast

SMILES | TGI (KM12 colon) [µM] | TGI (SNB-75 CNS) [µM] | TGI (MDA-N) [µM] | TGI (SN12C renal) [µM] | TGI (A498 renal) | TGI (HCT-15 colon) [µM] | TGI (M14 melanoma) [µM] | TGI (SR leukemia) [µM] | TGI (SK-MEL-5 melanoma) [µM] | TGI (MCF7 breast) [µM] | GI50 (SNB-75 CNS) | GI50 (A498 renal) | GI50 (SN12C renal) [µM]
CC1(C)C2CC3C(C)(C2)C31c1cc(Cl)ccc1N (stereo unspecified) | 28.5 | 24.3 | 24.7 | 27.5 | 31.8 µM | 23 | 24.8 | 22 | 27.1 | 26.7 | – | – | –
COc1ccc(C2N(c3ccc(C)c(N=C=O)c3)C(=O)N3C(c4ccc(OC)cc4)N(c4ccc(C)c(N=C=O)c4)C(=O)N23)cc1 (stereo unspecified) | > 100 | > 100 | > 100 | > 100 | > 100 µM | > 100 | > 100 | > 100 | > 100 | > 100 | – | – | –
O=C1C(c2ccccc2)=C(c2ccccc2)C1(Cl)Cl | 19.2 | 16.6 | 4.51 | 11.5 | 17.2 µM | 4.51 | 5.9 | 4.82 | 8.03 | 9.92 | – | – | –
N#Cc1ccc(-c2ccc(Cl)cc2)n(C2OC(CO)C(O)C(O)C2O)c1=S (stereo unspecified) | > 100 | > 100 | > 100 | > 100 | > 100 µM and 57.5 µM | > 100 | > 100 | > 100 | > 100 | > 100 | 43.1 µM and 19.8 µM | > 100 µM and 18.9 µM | –
c1ccc2c(c1)nnn2C1CCCCO1 (stereo unspecified) | > 100 | > 100 | > 100 | > 100 | > 100 µM | > 100 | > 100 | > 100 | > 100 | > 100 | – | – | –
N#Cc1c(/C=C/c2ccccc2)c2c([nH]c1=S)CCCCC2 | > 100 | > 100 | > 100 | > 100 | > 100 µM | > 100 | > 100 | > 100 | > 100 | > 100 | – | – | –
CCCCCCCCCCCC(=O)N(CCCCCCCCC)CC(O)C(O)C(OC1OC(CO)C(O)C(O)C1O)C(O)CO (stereo unspecified) | 31.2 | 34.3 | 38.4 | 36.1 | 39.5 µM | 34.5 | 36.9 | 42.4 | 35 | > 100 | – | – | –
CCOc1ccccc1N=NC1C(=O)N(C(=O)CC(=O)Nc2ccccc2C)N=C1C (stereo unspecified) | > 100 | 54.6 | > 100 | > 100 | > 100 µM | > 100 | > 100 | > 100 | > 100 | > 100 | – | – | –
CCC[N+](C)(C)CCCNC(=O)c1c(O)c2ccccc2[nH]c1=O | > 100 | > 100 | > 100 | > 100 | > 100 µM | > 100 | – | > 100 | 54.8 | > 100 | – | – | –
CCOC(=O)c1ccc2nc3n(c2c1)C(c1c(F)cccc1F)SC3 (stereo unspecified) | > 100 | > 100 | > 100 | > 100 | > 100 µM | > 100 | > 100 | > 100 | > 100 | > 100 | – | – | –
Cc1cc(N(CCC#N)CCC#N)ccc1/C(N=Nc1ccc(C(=O)O)cc1)=N\NC(=O)c1ccccc1 | > 100 | > 100 | > 100 | > 100 | 84.4 µM | > 100 | > 100 | > 100 | > 100 | > 100 | – | – | –
O=C(CC(=O)N1N=C(c2ccccc2)C(N=Nc2ccc(S(=O)(=O)CCOS(=O)(=O)O)cc2)C1=O)Nc1ccc(Cl)cc1 (stereo unspecified) | > 100 | > 100 | > 100 | > 100 | > 100 µM | > 100 | > 100 | > 100 | > 100 | > 100 | – | – | –
CC1(C)CCCCCC(O)C(O)CCC(C)(C)C1=O (stereo unspecified) | > 100 | > 100 | > 100 | > 100 | > 100 µM | > 100 | > 100 | > 100 | > 100 | > 100 | – | – | –
CC1(C)CCC2=C(O1)c1ccccc1C(=Nc1ccc([N+](=O)[O-])cc1)C2=O | 28.2 | 38.4 | 28.1 | 29.3 | 33.6 µM | > 100 | 20.5 | 37.7 | 30.3 | 27.7 | – | – | 15.9
COC(=O)/C1=C/C=C\C[C@@]2(C)CC(c3ccoc3)OC(=O)[C@@H]2CC[C@H]1C (stereo partly specified) | > 25 | > 25 | > 25 | > 25 | > 25 µM | > 25 | > 25 | > 25 | > 25 | > 25 | – | – | –
O=C(CSc1nc2ccc(I)cc2c(=O)n1Cc1ccccc1)Nc1ccccc1 | > 100 | 12.2 | > 100 | > 100 | 46.4 µM | > 100 | > 100 | 33.3 | > 100 | > 100 | – | – | –
C[Si](C)(C)OC1(C#N)c2ccccc2CCCC12CCCC2 (stereo unspecified) | > 100 | > 100 | > 100 | > 100 | > 100 µM | > 100 | > 100 | > 100 | 56.2 | > 100 | – | – | –
Cc1cc2nc3c(C#N)c(C)c(CCCl)c(Cl)n3c2cc1C | 14.4 | 4.63 | 6.12 | 3.63 | 7.64 µM | 3.85 | 6.16 | 5.81 | 8.82 | 8.64 | – | – | –
COCC(C#N)NC1CC(OC2CC(O)(C(=O)CO)Cc3c(O)c4c(c(O)c32)C(=O)c2c(OC)cccc2C4=O)OC(C)C1O (stereo unspecified) | 0.77 | 0.373 | 0.349 | 2.02 | 0.448 µM | 12.8 | 0.774 | 0.15 | 0.154 | 0.836 | – | – | –
N#CCCN(CCCCN(CCC#N)C(=O)Nc1ccccc1)C(=O)Nc1ccccc1 | > 100 | > 100 | > 100 | > 100 | > 100 µM | > 100 | > 100 | > 100 | > 100 | > 100 | – | – | –
NC1(c2cc3ccccc3s2)CCCCCC1 | 30.5 | 23.2 | 30.4 | 31 | 35.2 µM | 36.9 | 37.2 | 36.6 | 28.8 | 29.7 | – | – | –
CCOC(=O)c1nc2ccccc2nc1Nc1ccc(C(=O)OC)s1 | > 100 | > 100 | > 100 | > 100 | > 100 µM | > 100 | > 100 | > 100 | > 100 | > 100 | – | – | –
N=c1ncn(C/C=C/c2ccccc2)c2nc[nH]c12 | > 100 | > 100 | > 100 | > 100 | > 100 µM | > 100 | > 100 | > 100 | > 100 | > 100 | – | – | –
COC1C(O)C(C)OC(O[C@H]2CC[C@@]3(C)C(CC[C@@H]4[C@@H]3CC[C@]3(C)[C@@H](C(C)OC5OC(CO)C(O)C(O)C5O)CC[C@]43O)C2)C1O (stereo partly specified) | > 25 | > 25 | > 25 | > 25 | > 25 µM | > 25 | > 25 | > 25 | > 25 | > 25 | – | – | –
COC(=O)N[C@@H]1C[C@H]2CC[C@]1(O[Si](C(C)C)(C(C)C)C(C)C)C(=O)C2 | 52.1 | 41.9 | 83.4 | > 100 | 44.3 µM | 41.4 | 62.8 | > 100 | > 100 | > 100 | – | – | –
C=C(C)C1(Sc2ccc(OC)cc2)CC1 | > 100 | 78.5 | > 100 | 35.4 | > 100 µM | > 100 | > 100 | 37.4 | 31.6 | > 100 | – | – | –
Oc1ccc(-c2nc3cc(C(F)(F)F)ccc3s2)cc1 | 27.8 | – | 32.7 | 32.6 | 32.6 µM | 22.1 | 29.2 | 35.2 | 30 | 23.3 | – | – | –
N=C1C=CC(=C(c2ccc(N)cc2)c2ccc(N)cc2)C=C1 | 13.7 | 11.5 | 30.3 | 7.37 | 17.3 µM | 53.3 | 15.8 | > 64.9 | 9.5 | 13.2 | – | – | –
CCOc1ccc2c(c1)C(/C(C(Cl)=C(Cl)Cl)=[N+](/[O-])OC(=O)c1ccccc1)=N2 | > 100 | > 100 | > 100 | > 100 | > 100 µM | > 100 | > 100 | > 100 | > 100 | > 100 | – | – | –
